Data from patent publication US7560450B2, “Xanthine derivatives, the preparation thereof and their use as pharmaceutical compositions” (Boehringer Ingelheim Pharma GmbH & Co., KG, priority 2002, dated 2009).

Each molecule was assayed on rats (assay: Tolerability after oral administration to rats (behaviour)). Settings: 10 mg/kg.
Assay type: in vivo
With `CC#CCn1c(N2CCC[C@@H](N)C2)nc2c1c(=O)n(CC(=O)Nc1ccccn1)c(=O)n2C` [Example 1(3), 1-{[(pyridin-2-yl)aminocarbonyl]methyl}-3-methyl-7-(2-butyn-1-yl)-8-[(R)-3-amino-piperidin-1-yl]-xanthine] the “changes in the animals' behaviour” value was “no changes in the animals' behaviour could be detected”.

What follows are molecules tested against T1, DPP-IV (Homo sapiens, UniProt P27487) (assay: DPP-IV assay with Caco-2 cell extract as DPP IV source). Settings: extract of human colon carcinoma cell line Caco-2 as DPP IV source; substrate AFC 100 μM; 60 minutes at ambient temperature; 11 measuring points; read-out: DPP IV inhibition IC50.
T1 construct: an extract of human colon carcinoma cell line Caco-2 is used as the DPP IV source; endogenous in cells; host or cells: Caco-2 (human colon carcinoma), differentiated to induce DPP-IV expression; Nonidet-P40 solubilised extract
T1 sequence (P27487 whole entry): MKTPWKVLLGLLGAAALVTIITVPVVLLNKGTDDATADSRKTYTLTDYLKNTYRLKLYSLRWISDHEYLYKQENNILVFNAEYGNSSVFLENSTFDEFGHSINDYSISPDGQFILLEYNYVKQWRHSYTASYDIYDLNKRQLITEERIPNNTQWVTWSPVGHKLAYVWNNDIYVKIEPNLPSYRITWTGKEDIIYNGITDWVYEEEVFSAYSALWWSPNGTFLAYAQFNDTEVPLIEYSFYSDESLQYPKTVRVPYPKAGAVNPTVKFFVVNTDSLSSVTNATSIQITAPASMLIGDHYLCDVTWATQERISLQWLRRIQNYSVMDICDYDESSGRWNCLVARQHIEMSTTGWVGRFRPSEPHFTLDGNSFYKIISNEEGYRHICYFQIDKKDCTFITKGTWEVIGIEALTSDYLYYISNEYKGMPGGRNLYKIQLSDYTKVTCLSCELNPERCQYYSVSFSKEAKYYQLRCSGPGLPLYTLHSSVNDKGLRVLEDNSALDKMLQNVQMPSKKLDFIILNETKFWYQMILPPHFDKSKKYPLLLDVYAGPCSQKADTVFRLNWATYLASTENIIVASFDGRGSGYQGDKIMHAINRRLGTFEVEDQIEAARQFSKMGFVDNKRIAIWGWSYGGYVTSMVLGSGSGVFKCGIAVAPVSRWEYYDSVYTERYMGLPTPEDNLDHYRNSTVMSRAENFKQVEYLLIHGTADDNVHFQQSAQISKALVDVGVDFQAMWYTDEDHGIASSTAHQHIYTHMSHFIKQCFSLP
Assay type: biochemical
Method: The differentiation of the cells in order to induce the DPP-IV expression was carried out as described by Reiher et al. in an article entitled “Increased expression of intestinal cell line Caco-2”, which appeared in Proc. Natl. Acad. Sci. Vol. 90, pages 5757-5761 (1993). The cell extract was obtained from cells solubilised in a buffer (10 mM Tris HCl, 0.15 M NaCl, 0.04 t.i.u. aprotinin, 0.5% Nonidet-P40, pH 8.0) by centrifuging at 35,000 g for 30 minutes at 4° C. (to remove cell debris).
The DPP-IV assay was carried out as follows:
50 μl substrate solution (AFC; AFC is amido-4-trifluoromethylcoumarin), final concentration 100 μM, were placed in black microtitre plates. 20 μl of assay buffer (final concentrations 50 mM Tris HCl pH 7.8, 50 mM NaCl, 1% DMSO) was pipetted in. The reaction was started by adding 30 μl of solubilised Caco-2 protein (final concentration 0.14 μg of protein per well). The test substances to be investigated were typically added prediluted in 20 μl, and the volume of assay buffer was then reduced accordingly. The reaction was carried out at ambient temperature, incubating for 60 minutes. Then the fluorescence was measured in a Victor 1420 Multilabel Counter, the excitation wavelength being 405 nm and the emission wavelength being 535 nm. Blank readings (corresponding to 0% activity) were obtained in mixtures without any Caco-2 protein (volume replaced by assay buffer), control values (corresponding to 100% activity) were obtained in mixtures with no substance added. The potency of the test substances in question, expressed as IC50 values, was calculated from dosage/activity curves consisting of 11 measuring points in each case.
For `CC#CCn1c(N2CCCC(N)C2)nc2c1c(=O)n(CC(=O)Nc1ccc(C#N)cc1)c(=O)n2C` (stereo not shown) [1(8), 1-{[(4-cyano-phenyl)aminocarbonyl]methyl}-3-methyl-7-(2-butyn-1-yl)-8-(3-amino-piperidin-1-yl)-xanthine], the IC50 was 42 nM. `CC#CCn1c(N2CCC[C@@H](N)C2)nc2c1c(=O)n(CC(=O)Nc1cccnc1)c(=O)n2C` [1(5), 1-{[(pyridin-3-yl)aminocarbonyl]methyl}-3-methyl-7-(2-butyn-1-yl)-8-[(R)-3-amino-piperidin-1-yl]-xanthine] showed an IC50 of 7 nM. Molecule `CC#CCn1c(N2CCC[C@@H](N)C2)nc2c1c(=O)n(CC(=O)Nc1ccccc1OC)c(=O)n2C` [1(9), 1-{[(2-methoxy-phenyl)aminocarbonyl]methyl}-3-methyl-7-(2-butyn-1-yl)-8-[(R)-3-amino-piperidin-1-yl]-xanthine] has an IC50 of 32 nM. `CC#CCn1c(N2CCC[C@@H](N)C2)nc2c1c(=O)n(CC(=O)Nc1ccccc1[N+](=O)[O-])c(=O)n2C` [1(7), 1-{[(2-nitro-phenyl)aminocarbonyl]methyl}-3-methyl-7-(2-butyn-1-yl)-8-[(R)-3-amino-piperidin-1-yl]-xanthine] was tested, and the IC50 was 4 nM. `CC#CCn1c(N2CCCC(N)C2)nc2c1c(=O)n(CC(=O)COc1ccccc1)c(=O)n2C` (stereo not shown) [1(10), 1-(2-oxo-3-phenoxy-propyl)-3-methyl-7-(2-butyn-1-yl)-8-(3-amino-piperidin-1-yl)-xanthine] showed an IC50 of 286 nM. `CC#CCn1c(N2CCC[C@@H](N)C2)nc2c1c(=O)n(CC(=O)OCc1ccccc1)c(=O)n2C` [Example 1, 1-[(benzyloxycarbonyl)methyl]-3-methyl-7-(2-butyn-1-yl)-8-[(R)-3-amino-piperidin-1-yl]-xanthine] gave an IC50 of 27 nM. For `CC#CCn1c(N2CCC[C@@H](N)C2)nc2c1c(=O)n(CC(=O)Nc1ccccc1C)c(=O)n2C` [1(6), 1-{[(2-methyl-phenyl)aminocarbonyl]methyl}-3-methyl-7-(2-butyn-1-yl)-8-[(R)-3-amino-piperidin-1-yl]-xanthine], the IC50 was 722 nM. Molecule `CC#CCn1c(N2CCC[C@@H](N)C2)nc2c1c(=O)n(CC(=O)Nc1ccccc1)c(=O)n2C` [1(2), 1-[(phenylaminocarbonyl)methyl]-3-methyl-7-(2-butyn-1-yl)-8-[(R)-3-amino-piperidin-1-yl]-xanthine] has an IC50 of 26 nM. For `CC#CCn1c(N2CCC[C@@H](N)C2)nc2c1c(=O)n(CC(=O)Nc1ccccn1)c(=O)n2C` [Example 1(3), 1-{[(pyridin-2-yl)aminocarbonyl]methyl}-3-methyl-7-(2-butyn-1-yl)-8-[(R)-3-amino-piperidin-1-yl]-xanthine], the IC50 was 4 nM. `CC#CCn1c(N2CCC[C@@H](N)C2)nc2c1c(=O)n(CC(=O)NCc1ccccc1)c(=O)n2C` [1(1), 1-[(benzylaminocarbonyl)methyl]-3-methyl-7-(2-butyn-1-yl)-8-[(R)-3-amino-piperidin-1-yl]-xanthine] was tested, and the IC50 was 46 nM. `CC#CCn1c(N2CCCC(N)C2)nc2c1c(=O)n(CC(=O)NCc1ccccc1N)c(=O)n2C` (stereo not shown) [1(11), 1-[(2-amino-benzylaminocarbonyl)methyl]-3-methyl-7-(2-butyn-1-yl)-8-(3-amino-piperidin-1-yl)-xanthine] was tested, and the IC50 was 28 nM. For `CC#CCn1c(N2CCC[C@@H](N)C2)nc2c1c(=O)n(CC(=O)OCc1cccnc1)c(=O)n2C` [1(4), 1-{[(pyridin-3-yl)methoxycarbonyl]methyl}-3-methyl-7-(2-butyn-1-yl)-8-[(R)-3-amino-piperidin-1-yl]-xanthine], the IC50 was 13 nM.
